Values quoted from earlier work in patent US20020022622A1, “Thiazole, imidazole and oxazole compounds and treatments of disorders associated with protein aging” (priority 2000, published 2002).

How the values were obtained:
[1] = system: aortic wall protein cross-linking; conditions: diabetic rats
[2] = system: immunoglobulin trapping in the kidney; conditions: in vivo
[3] = system: glomerular basement membrane thickness; conditions: streptozotocin-diabetic rat model
red blood cells = conditions: in vivo

## N=C(N)NN [aminoguanidine]
[1]
  aortic wall protein cross-linking: diminishes
[2]
  immunoglobulin trapping in the kidney: reduction
[3]
  increased glomerular basement membrane thickness: prevented
Red blood cells
  diabetes-induced changes in the deformability of red blood cells: prevent
